For one compound, inhibition results are on record in patent US20260274839A1, “COMPOUND AND USE THEREOF IN TREATING HUMAN DIHYDROOROTATE DEHYDROGENASE (hDHODH)-MEDIATED DISEASES” (SICHUAN UNIVERSITY, priority 2023, published 2026).

The test has as its target hDHODH (Homo sapiens, UniProt Q02127). The experiment in a line: Determination of hDHODH enzymatic inhibitory activity. Format: biochemical. The note with it: compound final concentration 1 μM; purified hDHODH 40 nM; absorbance 600 nm.

hDHODH, sequence (Q02127 whole entry): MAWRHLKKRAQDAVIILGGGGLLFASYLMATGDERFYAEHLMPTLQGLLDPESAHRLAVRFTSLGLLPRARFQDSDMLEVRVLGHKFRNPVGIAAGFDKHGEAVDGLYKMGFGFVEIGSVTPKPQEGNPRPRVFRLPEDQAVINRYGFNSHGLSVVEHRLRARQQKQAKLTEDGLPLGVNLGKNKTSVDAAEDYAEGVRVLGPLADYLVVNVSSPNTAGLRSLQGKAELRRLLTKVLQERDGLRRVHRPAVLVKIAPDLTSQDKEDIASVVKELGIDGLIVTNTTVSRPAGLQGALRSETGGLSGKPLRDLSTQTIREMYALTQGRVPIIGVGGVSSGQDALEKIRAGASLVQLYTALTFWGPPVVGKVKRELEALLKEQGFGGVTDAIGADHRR
Description: Determination of hDHODH Enzymatic Inhibitory Activity of Compounds
Assay buffer preparation: 100 mM HEPES buffer, 150 mM NaCl, 10% glycerol, and 0.1% Triton X-100 were mixed, adjusted to pH-8.0. A resulting mixture was diluted with Milli-Q water, and then stored at 4° C. A total volume of the enzyme activity detection system was 60 μL. The procedure was performed as follows: 1 μL of the small-molecule solution (with a final concentration of 1 μM) was added to a 96-well enzyme plate. 39 μL of a mixture containing the purified hDHODH protein (with a final concentration of 40 nM), 2,6-dichloroindophenol sodium salt (with a final concentration of 100 μM), coenzyme Q (CoQ, with a final concentration of 20 μM) were added thereto. The plate was protected from light and incubated at 37° C. with gentle shaking for 30 min. After the incubation was completed, 20 μL of dihydroorotate (DHO, with a final concentration of 200 μM) was added to each well. Absorbance was immediately measured using a microplate reader having the following procedure: kinetic assay: wavelength: 600 nm, total duration: 10 min, interval: every 20 s. Controls: negative control: Dimethyl sulfoxide (DMSO) (equal volume) without inhibitor; blank control: ultra-pure water (equal volume) without DHO substrate. All assays were conducted in triplicate. […]

One may read the inhibition as the share of the control response that was lost under treatment. For the compound `Fc1ccccc1Cn1nc(-c2ccc(C3CC3)cn2)c2cccnc21` [Compound D11], the inhibition at 1 µM came out at 48.3%.
